Entries after “also recorded” stand apart in the source; their conditions may differ.
What was measured:
[1] = tested on: NL20 (immortalized, non-tumor line, pulmonary epithelium); assay: Cytotoxicity test (Cell Titer, 5 days), non-tumor line; format: cell-based, human
Experimental: (§1) Extracts (aqueous, ethyl, acidic) were obtained from 9 macrofungi species collected by INBio in the Costa Rican rainforests. All of them were subjected to a cytotoxicity test with two human cell lines: A549 (lung adenocarcinoma) and NL20 (immortalized, non-tumor line, obtained from the pulmonary epithelium). Cells were plated in 96-well plates at densities of 2,000 (A549) or 10,000 (NL20) cells per well. Once the cells were stuck to the bottom, serial concentrations of each extract were added and incubated at 37° C. for 5 days under a humidified atmosphere (85% relative humidity) and containing 5% CO2. Eight repeats (wells) were studied for each concentration. At the end of the incubation process, 20 μl of Cell Titer (Promega) were added per well and left for 4 h to allow the formation of the colored formazan salts. Colorimetric quantification was performed with a plate reader (POLARstar Omega) using a wavelength of 490 nm, following already published protocols (Coderch C, Diaz de C M, Zapico J M, Pelaez R, Larrayoz I M, Ramos A, et al. In silico identification and in vivo characterization of small molecule therapeutic hypothermia mimetics. Bioorg Med Chem 2017; 25:6597-604). […]

[2] = tested on: A549 (lung adenocarcinoma); assay: Cytotoxicity test (Cell Titer, 5 days), tumor line; format: cell-based, human
Experimental: as §1

[3] = tested on: actin cytoskeleton of NL20 cells; assay: Modulation of the actin cytoskeleton (Bodipy-falacidine staining, confocal), non-tumor cells; format: cell-based, human; conditions: 0.03 mg/ml, 24-hour treatment
Text: (§2) Many antitumor substances exert their effects by modulating the cytoskeleton of tumor cells, either acting on microtubules or on actin filaments (Zhang S, Menche D, Zahler S, Vollmer A M, Liebl J, Forster F. In vitro anti-cancer effects of the actin-binding natural compound rhizopodin. Pharmazie 2015; 70:610-5.). To check whether compound TG10 has a similar mechanism of action as other antitumor drugs, tumor cells (A549) and non-tumor cells (NL20) were subjected to a 24-hour treatment with 0.03 mg/ml TG10. At the end of this time, the cells were fixed with 10% formaldehyde for 10 min, permeabilized with 0.1% Triton X-100 for 10 min and exposed to 1: 200 Bodipy-falacidine and 1: 1000 DAPI (Molecular Probes) for 1 h. The images were obtained with a confocal laser microscope (TCS SP5, Leica).

[4] = tested on: A549 xenograft tumors; assay: Human lung cancer xenografts in immunosuppressed mice; format: in vivo, mice (NOD scid gamma)
Experimental: In this case, 20 male mice of the NOD scid gamma strain (NSG, Stock No. 005557, The Jackson Laboratory) were used. All of them were injected subcutaneously with 10 million A549 cells and left for 2 weeks until the tumors became measurable. Two groups of 10 mice each were randomized and marked as control group (diamonds) and TG10-treated group (squares). From this point, intratumor injections with 100 μl of PBS (control group) or 0.1 mg/ml of TG10 in PBS (treated group) were applied 3 times per week. Before each injection, tumor volumes were measured with a caliper. The mice were euthanized when the tumors reached a size incompatible with animal welfare.

[5] = tested on: actin cytoskeleton of A549 cells; assay: Modulation of the actin cytoskeleton (Bodipy-falacidine staining, confocal), tumor cells; format: cell-based, human; conditions: 0.03 mg/ml, 24-hour treatment
Text: as §2

Row | Compound | Toxicity to normal cells (NL20) [1] | Antitumor activity against A549 (toxicity test of synthesized TGs) [2] | Effect on actin fibers of NL20 cells [3] | Tumor growth versus control (in words) ([4]; intratumor 0.1 mg/ml in PBS, 3 times per week, FIG. 5) | Average tumor volume at the end of the experiment ([4]; intratumor 100 μl of 0.1 mg/ml in PBS, 3 times per week from day 15, end day 48, control 2900 mm^3, p<0.05) [mm^3] | Effect on actin fibers of A549 cells [5]
1 | 2S-TG (C18:2, 9z, 12z; C16:0; C18:1, 9z) [TG9] | no effect on cells | no effect on cells |  |  |  | 
2 | CCCCC/C=C\C/C=C\CCCCCCCC(=O)OC[C@@H](COC(=O)CCCCCCC/C=C\CCCCCCCC)OC(=O)CCCCCCCCCCCCCCC [TG10, 2R-TG (C18:2, 9z, 12z; C16:0; C18:1, 9z)] | not toxic to normal cells | exhibited antitumor activity; also recorded: TG10 (active) | maintained the filamentous structure of actin | continued to grow, but at a slower rate | 1600 | completely lost the polymerized actin fibers
